The term pEC50 denotes the negative decadic logarithm of the EC50, by convention in mol/L. Low readings indicate a high EC50, high ones a low EC50. In general, pIC50 refers to the IC50 on a negative log10 scale, so that one unit is a factor of ten.

The record followed here is USRE47428E1, “Modulators of methyl modifying enzymes, compositions and uses thereof” (Constellation Pharmaceuticals, Inc., priority 2013, dated 2019).

pEC50, pIC50: −log10 of the molar value. Like-named read-outs stand apart in the source and are kept apart here.

The subject of assay [1] is H3K27me3 mark in HeLa cells. Put plainly: H3K27me3 Alpha Hela Assay (AlphaLISA). It is filed as cell-based. The note with it: 72 hrs incubation. On the procedure:
H3K27me3 Alpha Hela Assay (AlphaLISA).
Ten different doses of each test compound (in a series of 3-fold dilutions) were plated in duplicate 384-well tissue culture treated plates (Catalog #781080; Greiner Bio One; Monroe, N.C.). Hela cells grown in culture were trypsinized and counted using a Countess® cell counter (Catalog #C10281; Life Technologies, Grand Island, N.Y.). Cell were diluted to 67,000 cells per mL in 10% DMEM (Catalog #10569-010 Life Technologies, Grand Island, N.Y.) and 15 μL (1,000 cells) were plated into each well using the Biotek MicroFlo™ Select Dispenser (BioTek Instruments, Inc. Vermont, USA),) of the 384-well plate. Plates were incubated at 37° C./5% CO2 for 72 hrs. One of the duplicate plates was processed for HeLa assay and the other for viability.
To the plate processed for AlphaLISA was added 5 μL per well Cell-Histone Lysis buffer (1×) (Catalog #AL009F1 Perkin Elmer; Waltham, Mass.) and the plate was incubated at RT for 30 minutes on a plate shaker with low speed (Model #4625-Q Thermo Scientific; Waltham, Mass.). Then, 10 μL per well Histone Extraction buffer (catalog #AL009F2; Perkin Elmer; Waltham, Mass.) was added and the plate further incubated at RT for 20 min on plate shaker with low speed. To each well was then added 10 μL per well of a 5× mix of anti-K27me3 acceptor beads plus Biotinylated anti-Histone H3 (C-ter) Antibody (diluted to 3 nM final) (Catalog #AL118 Perkin Elmer; Waltham, Mass.). Dilution of the acceptor beads and then anti-Histone H3 was with 1× Histone Detection buffer (Catalog #AL009F3 Perkin Elmer; Waltham, Mass.) which was produced diluted from the 10× stock provided. The plate was sealed with an aluminum plate sealer and incubated at 23° C. for 60 min. […] The plates were then read using an EnVision-Alpha Reader (model #2104 Perkin Elmer; Waltham, Mass.).
Data from both assays was analyzed using Assay Assistant (Constellation Pharmaceuticals In-house product) and Activity Base (IDBS Ltd, Surrey, UK) template. […] Readout of DMSO wells were used to normalize the data. […]
Background: Bead proximity is the source of the signal in Alpha formats.

The subject of assay [2] is H3K27me3 mark in HeLa cells. Put plainly: H3K27me3 MSD Hela Assay. It is filed as cell-based. How it is done:
Trypsinized HeLa cells were counted and diluted in 10% DMEM (Life Technologies, Cat. #10569) to 5000 cells/75 μL. Seventy-five μL of cells were place in each well of a 96-well flat-bottomed plate and incubated at 37° C. for 4 hours. Twenty-five μL of test compound (at various concentrations) was added to the cells and incubation continued at 37° C. for 96 hours. Media was then removed and the cells rinsed once with ice cold PBS. Forty μL of ice-cold MSD Buffer AT (10 mM HEPES, pH 7.9, 5 mM MgCl2, 0.25M sucrose, Benzonase (1:10000), 1% Triton X-100 supplemented with fresh 1× Protease Inhibitor cocktail and 1 mM 4-(2-Aminoethyl)benzenesulfonyl fluoride hydrochloride (AEBSF)) was added to each well and the plates placed on ice for 30 minutes. Ten μL of 5M NaCl was then added to each well and incubation on ice continued for another 15 minutes. The material in each well was suspended pipetting up and down and then transferred to a new 96 well plate. […]
The antibody mix was then removed and the wells washed with Blocker A. One hundred-fifty μL of freshly prepared 1×MSD Read Buffer (Meso-Scale Discovery; Cat #R927C-2) was then added to each well and the plates read on a MSD Sector 2400 Plate Reader.
Data was analyzed using Assay Assistant (Constellation Pharmaceuticals In-house product) and Activity Base (IDBS Ltd, Surrey, UK) template. […] Readout of DMSO wells were used to normalize the data. […]

Another assay addresses Y641N EZH2 (Homo sapiens, UniProt Q15910, Y641N). Put plainly: Y641N EZH2 assay, H3K27Me2 oligonucleosomes as substrate. The format is biochemical. On the procedure:
(§1) Assays were carried out by mixing rPRC2 together with biotinylated oligonucleosome substrates in the presence of the radio-labeled enzyme co-factor, S-adenosyl-L-methionine (^3H SAM) (Perkin Elmer) and monitoring the enzymatically mediated transfer of tritiated methyl groups from ^3H SAM to histone lysine residues. The amount of resulting tritiated methyl histone product was measured by first capturing the biotinylated oligonucleosomes in streptavidin (SAV) coated FlashPlates (Perkin Elmer), followed by a wash step to remove un-reacted ^3H SAM, and then counting on a TopCount NXT 384 well plate scintillation counter (Perkin Elmer). The final assay conditions for EZH2 were as follows: 50 mM Tris Buffer pH 8.5, 1 mM DTT, 69 μM Brij-35 detergent, 5.0 mM MgCl2, 0.1 mg/mL BSA, 0.2 μM ^3H SAM, 0.2 μM biotinylated oligonucleosomes, 3.6 μM H3K27me3 peptide and 2 nM EZH2.
(§2) A 12.5 μL volume of the HMT enzyme, H3K27me3 peptide and oligonucleosome substrate in assay buffer was added to each well of the assay plate using a Multidrop Combi (Thermo-Fisher). Compounds were pre-incubated with the enzyme for 20 min, followed by initiation of the methyltransferase reaction by addition of 12.5 μL of ^3H SAM in assay buffer (final volume=25 μL). The final concentrations of compounds ranged from a top default concentration of 80 μM down to 0.16 μM in ten 2-fold dilution steps. Reactions were carried out for 60 minutes and quenched with 20 μL per well of 1.96 mM SAH, 50 mM Tris pH 8.5, 200 mM EDTA. Stopped reactions were transferred to SAV coated Flash-plates (Perkin Elmer), incubated for 120 min, washed with a plate washer, and then read on the TopCount NXT (1.0 min/well) to measure the amount of methyl histone product formed during the reaction.

The target in the next assay is EZH2 (Homo sapiens, UniProt Q15910). Kind of assay: EZH2 assay: rPRC2 methyltransferase, 3H SAM FlashPlate. It is filed as biochemical. The note with it: 0.2 μM 3H SAM, 2 nM EZH2. On the procedure: as §1, §2
EZH2, sequence (Q15910 whole entry): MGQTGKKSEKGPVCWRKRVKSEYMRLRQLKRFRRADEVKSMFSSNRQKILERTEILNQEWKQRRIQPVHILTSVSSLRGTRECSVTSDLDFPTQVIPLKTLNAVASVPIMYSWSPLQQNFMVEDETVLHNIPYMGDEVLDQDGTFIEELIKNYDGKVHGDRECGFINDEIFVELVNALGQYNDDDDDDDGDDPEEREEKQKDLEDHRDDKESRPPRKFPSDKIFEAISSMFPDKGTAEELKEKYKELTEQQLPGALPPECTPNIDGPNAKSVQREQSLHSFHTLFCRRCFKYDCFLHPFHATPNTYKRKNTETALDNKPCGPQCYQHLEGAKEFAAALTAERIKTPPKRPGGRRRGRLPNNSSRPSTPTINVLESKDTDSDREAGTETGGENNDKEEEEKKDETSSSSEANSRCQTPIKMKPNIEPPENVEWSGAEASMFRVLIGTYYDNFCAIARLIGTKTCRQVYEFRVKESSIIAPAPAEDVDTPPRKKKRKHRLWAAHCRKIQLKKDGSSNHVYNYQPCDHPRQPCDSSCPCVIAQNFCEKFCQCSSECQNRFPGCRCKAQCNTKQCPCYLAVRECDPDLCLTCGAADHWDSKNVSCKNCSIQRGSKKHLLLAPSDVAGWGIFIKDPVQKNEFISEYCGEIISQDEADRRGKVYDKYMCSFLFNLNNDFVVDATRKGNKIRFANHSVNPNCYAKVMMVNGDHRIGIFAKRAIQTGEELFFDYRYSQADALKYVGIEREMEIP
EZH2, sequence (O75530 whole entry partner): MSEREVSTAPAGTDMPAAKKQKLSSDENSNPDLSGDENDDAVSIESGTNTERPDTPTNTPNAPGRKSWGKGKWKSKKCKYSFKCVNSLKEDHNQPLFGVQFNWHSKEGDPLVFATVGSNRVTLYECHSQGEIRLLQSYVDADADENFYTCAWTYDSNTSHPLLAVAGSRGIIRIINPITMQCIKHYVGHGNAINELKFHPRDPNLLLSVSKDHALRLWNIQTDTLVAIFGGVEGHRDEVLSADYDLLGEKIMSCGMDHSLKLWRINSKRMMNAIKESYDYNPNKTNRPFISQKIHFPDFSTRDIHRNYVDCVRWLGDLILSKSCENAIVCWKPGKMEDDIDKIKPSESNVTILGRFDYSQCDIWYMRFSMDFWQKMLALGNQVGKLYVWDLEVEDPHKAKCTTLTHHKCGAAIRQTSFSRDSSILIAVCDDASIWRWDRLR
EZH2, sequence (Q15022 whole entry partner): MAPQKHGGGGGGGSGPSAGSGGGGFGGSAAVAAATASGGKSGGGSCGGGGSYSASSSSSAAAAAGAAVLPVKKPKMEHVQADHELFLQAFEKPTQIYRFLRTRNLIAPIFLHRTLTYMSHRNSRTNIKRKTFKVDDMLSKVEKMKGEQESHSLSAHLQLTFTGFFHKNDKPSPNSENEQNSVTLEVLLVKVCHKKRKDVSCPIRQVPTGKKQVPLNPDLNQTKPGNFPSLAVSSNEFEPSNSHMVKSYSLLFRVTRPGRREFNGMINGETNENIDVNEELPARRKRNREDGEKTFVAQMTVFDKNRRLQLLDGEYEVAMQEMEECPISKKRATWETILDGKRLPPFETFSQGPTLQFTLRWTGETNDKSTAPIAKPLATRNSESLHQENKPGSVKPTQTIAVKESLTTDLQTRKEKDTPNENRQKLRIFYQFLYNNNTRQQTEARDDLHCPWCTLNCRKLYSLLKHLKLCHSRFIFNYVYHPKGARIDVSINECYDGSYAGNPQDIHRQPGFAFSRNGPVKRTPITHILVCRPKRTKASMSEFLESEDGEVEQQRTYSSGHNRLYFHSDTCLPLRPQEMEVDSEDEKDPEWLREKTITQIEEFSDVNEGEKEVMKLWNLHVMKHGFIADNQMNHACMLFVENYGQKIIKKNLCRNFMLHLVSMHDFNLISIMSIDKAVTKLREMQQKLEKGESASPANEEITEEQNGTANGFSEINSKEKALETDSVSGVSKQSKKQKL

Y641N EZH2, sequence (Q15910 whole entry Y641N): as the sequence (Q15910 whole entry) above, with Y641N counted along it
Y641N EZH2, sequence (O75530 whole entry partner): as the sequence (O75530 whole entry partner) above
Y641N EZH2, sequence (Q15022 whole entry partner): as the sequence (Q15022 whole entry partner) above

Turning to `CCS(=O)(=O)N1CCC(C(C)n2c(C)c(C(=O)NCc3c(OC)cc(C)[nH]c3=O)c3ccccc32)CC1` (single isomer, unassigned) [Compound 345, (R or S)-1-(1-(1-(ethylsulfonyl)piperidin-4-yl)ethyl)-N-((4-methoxy-6-methyl-2-oxo-1,2-dihydropyridin-3-yl)methyl)-2-methyl-1H-indole-3-carboxamide], the pEC50 in assay [1] (Homo sapiens) is above 6.40.

Compound `COc1cc(C)[nH]c(=O)c1CNC(=O)c1c(C)n(C(C)C2CCCNC2)c2ccccc12` (stereo not drawn) [Compound 315] had a pEC50 in assay [2] below 5.00.

In the case of “(R or S)-1-(1-(4-(isopropylsulfonyl)cyclohexyl)ethyl)-N-((4-methoxy-6-methyl-2-oxo-1,2-dihydropyridin-3-yl)methyl)-2-methyl-1H-indole-3-carboxamide [Compound 355]”, the pIC50 is above 7.00 on Y641N EZH2 (Y641N EZH2 mutant enzyme, H3K27Me2 oligonucleosomes, read-out: Y641N EZH2 IC50) and above 7.00 at EZH2 (rPRC2, biotinylated oligonucleosomes, read-out: EZH2 IC50). For the same compound, the pEC50 in assay [1] was above 6.40.

Regarding `COc1cc(C)[nH]c(=O)c1CNC(=O)c1c(C)n(C(C)C2CCC(F)(F)CC2)c2ccccc12` (racemic) [Compound 304, (±)-1-(1-(4,4-difluorocyclohexyl)ethyl)-N-((4-methoxy-6-methyl-2-oxo-1,2-dihydropyridin-3-yl)methyl)-2-methyl-1H-indole-3-carboxamide], the pEC50 in assay [2] (Homo sapiens) and in assay [1] (Homo sapiens) was above 6.40 each time. The pIC50 at Y641N EZH2 is above 7.00; against EZH2 (EZH2 IC50, rPRC2, biotinylated oligonucleosomes) it was above 7.00.
